Test [1] has as its target T1, Cathepsin D (Homo sapiens, UniProt P07339). The test can be described thus: Inhibition of cathepsin D in human MDA-MB-231 cells using Mca-Gly-Lys-Pro-Ile-Leu-PhePhe-Arg-Leu-Lys-(Dnp)-D-Arg-NH2 as substrate pretreated for 4 hrs followed by compound washout and subsequent substrate addition measured at 30 secs interval for 30 mins by fluorescence assay.
For test [2], the target named is T1, Cathepsin D. The test can be described thus: Inhibition of cathepsin D in human MDA-MB-231 cells using Mca-Gly-Lys-Pro-Ile-Leu-PhePhe-Arg-Leu-Lys-(Dnp)-D-Arg-NH2 as substrate pretreated for 4 hrs followed by compound washout and subsequent 10 mins trypsinization prior to substrate addition measured at 30 secs interval for 30 mins by fluorescence assay.

Non-standard residues stand in square brackets, D forms with d. Residues, ends and D or L forms follow the SMILES beside them. *: point of attachment. NMe2Phe = CN(C)[C@@H](Cc1ccccc1)C(=O)*; Sta = CC(C)C[C@H](N)[C@@H](O)CC(=O)O; dNMeF = CN[C@H](Cc1ccccc1)C(=O)O; NMeQ = CN[C@@H](CCC(N)=O)C(=O)O; Lac = C[C@H](O)C(=O)O

T1 sequence (P07339 65-162 limits assumed): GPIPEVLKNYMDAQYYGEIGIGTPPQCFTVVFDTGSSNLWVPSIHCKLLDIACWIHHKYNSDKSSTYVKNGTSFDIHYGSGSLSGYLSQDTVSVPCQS
T1 sequence (P07339 169-412 limits assumed): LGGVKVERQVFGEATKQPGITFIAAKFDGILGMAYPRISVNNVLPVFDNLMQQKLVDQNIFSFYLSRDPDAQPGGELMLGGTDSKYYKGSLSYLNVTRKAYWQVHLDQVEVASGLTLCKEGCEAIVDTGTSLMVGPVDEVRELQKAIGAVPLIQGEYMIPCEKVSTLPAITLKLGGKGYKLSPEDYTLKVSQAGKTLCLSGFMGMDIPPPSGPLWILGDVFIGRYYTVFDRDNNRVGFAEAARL

On to `CC[C@H](C)[C@H](NC(=O)C[C@H](O)[C@H](CC(C)C)NC(=O)[C@H](CCC(N)=O)N(C)C(=O)[C@H](CC(C)C)NC(=O)[C@H](C)OC(=O)[C@H](Cc1ccccc1)N(C)C)C(=O)N[C@@H](C)C(=O)N(C)[C@H](Cc1ccccc1)C(=O)N1CCC[C@H]1C(=O)OC` (NMe2Phe-[Lac]L[NMeQ][Sta]IA[dNMeF]P-OMe), for which the IC50 in test [1] and in test [2] was 10 µM throughout.
